Measured values taken from PubChem BioAssay AID330 (DTP/NCI, 2004).
“And” between values parts separate entries of the source, which are not always exact repeats. Equal entries are not always repeated. Inconclusive results and toxic doses are left out. The calls were made as follows: active = survival T/C of 150% or more; inactive = T/C below 125% in these data.

System: P388 leukemia ip, CD2F1 mice, survival T/C
Assay: NCI In Vivo Anticancer Drug Screen. Data for tumor model P388 Leukemia (intraperitoneal) in CD2F1 (CDF1) mice
Conditions: endpoint: median survival time, higher = longer survival
Outline: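 Mice carrying the transplanted tumor received test compound or vehicle. Survival was recorded in each group, and the value is the treated-group measurement divided by that of the vehicle-treated control group.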

[1] = dose: 50.0 mg/kg/injection, schedule: Q01DX009 (ip), vehicle: saline
[2] = dose: 100.0 mg/kg/injection, schedule: Q01DX009 (ip), vehicle: saline
[3] = dose: 200.0 mg/kg/injection, schedule: Q01DX009 (ip), vehicle: saline
[4] = dose: 60.0 mg/kg/injection, schedule: Q01DX005 (ip), vehicle: saline with Tween-80
[5] = dose: 120.0 mg/kg/injection, schedule: Q01DX005 (ip), vehicle: saline with Tween-80
[6] = dose: 50.0 mg/kg/injection, schedule: Q01DX009 (ip), vehicle: saline with Tween-80
[7] = dose: 100.0 mg/kg/injection, schedule: Q01DX009 (ip), vehicle: saline with Tween-80
[8] = dose: 200.0 mg/kg/injection, schedule: Q01DX009 (ip), vehicle: saline with Tween-80
[9] = dose: 50.0 mg/kg/injection, schedule: Q01DX009 (ip), vehicle: Klucel (hydroxypropylcellulose) (HPC)
[10] = dose: 100.0 mg/kg/injection, schedule: Q01DX009 (ip), vehicle: Klucel (hydroxypropylcellulose) (HPC)
[11] = dose: 200.0 mg/kg/injection, schedule: Q01DX009 (ip), vehicle: Klucel (hydroxypropylcellulose) (HPC)
[12] = dose: 120.0 mg/kg/injection, schedule: Q01DX005 (ip), vehicle: Klucel (hydroxypropylcellulose) (HPC)
[13] = dose: 240.0 mg/kg/injection, schedule: Q01DX005 (ip), vehicle: Klucel (hydroxypropylcellulose) (HPC)
[14] = dose: 50.0 mg/kg/injection, schedule: Q01DX005 (ip), vehicle: Klucel (hydroxypropylcellulose) (HPC)
[15] = dose: 50.0 mg/kg/injection, schedule: Q01DX005 (ip), vehicle: saline with Tween-80
[16] = dose: 100.0 mg/kg/injection, schedule: Q01DX005 (ip), vehicle: Klucel (hydroxypropylcellulose) (HPC)
[17] = dose: 100.0 mg/kg/injection, schedule: Q01DX005 (ip), vehicle: saline with Tween-80
[18] = dose: 200.0 mg/kg/injection, schedule: Q01DX005 (ip), vehicle: saline with Tween-80

Measured: T/C

CNCS(=O)(=O)O
inactive: [1] 106 % of control | [2] 101 % of control | [3] 93 % of control

CC(=O)OC1CSS(=O)CC1OC(C)=O (stereo unspecified)
inactive: dose: 100.0 mg/kg/injection, schedule: Q04DX002 (ip), vehicle: saline 100 % of control | dose: 200.0 mg/kg/injection, schedule: Q04DX002 (ip), vehicle: saline 109 % of control

O=C(Nc1ccc(Br)c2ccccc12)c1ccc2ccccc2c1O
inactive: [4] 91 % of control | [5] 92 % of control

Oc1c(-c2ccccc2)cc(-c2ccc(Br)cc2)c(-c2ccc(Br)cc2)c1-c1ccccc1
inactive: dose: 12.5 mg/kg/injection, schedule: Q01DX009 (ip), vehicle: saline with Tween-80 107 % of control | dose: 25.0 mg/kg/injection, schedule: Q01DX009 (ip), vehicle: saline with Tween-80 95 % of control | [6] 98 % of control | [7] 105 % of control | [8] 96 % of control

CCOC(=O)NC(C)(C)CN(C(=O)OCC)C(C)(C)CO
inactive: dose: 50.0 mg/kg/injection, schedule: Q04DX003 (ip), vehicle: saline 100 % of control | dose: 100.0 mg/kg/injection, schedule: Q04DX003 (ip), vehicle: saline 109 % of control | dose: 200.0 mg/kg/injection, schedule: Q04DX003 (ip), vehicle: saline 109 % of control

CCOC(=O)/C=C/c1c[nH]c(C(=O)OCC)c1
inactive: [9] 93 % of control | [10] 91 % of control | [11] 93 % of control | dose: 400.0 mg/kg/injection, schedule: Q01DX009 (ip), vehicle: Klucel (hydroxypropylcellulose) (HPC) 108 % of control

NNC(=O)c1ccc(NC(=O)CSc2nc3ccccc3s2)cc1
inactive: dose: 12.5 mg/kg/injection, schedule: Q01DX009 (ip), vehicle: Klucel (hydroxypropylcellulose) (HPC) 99 % of control | dose: 25.0 mg/kg/injection, schedule: Q01DX009 (ip), vehicle: Klucel (hydroxypropylcellulose) (HPC) 102 % of control | [9] 101 % of control

OC(Cc1ccnc2ccccc12)C(Cl)(Cl)Cl (stereo unspecified)
inactive: dose: 200.0 mg/kg/injection, schedule: Q04DX003 (ip), vehicle: saline with Tween-80 104 % of control | dose: 400.0 mg/kg/injection, schedule: Q04DX003 (ip), vehicle: saline with Tween-80 90 % of control

NS(=O)(=O)c1ccc(N=Cc2cnc3ccccc3c2)cc1
inactive: dose: 2.5 mg/kg/injection, schedule: Q01DX009 (ip), vehicle: saline 100 % of control | dose: 5.0 mg/kg/injection, schedule: Q01DX009 (ip), vehicle: saline 97 % of control | dose: 10.0 mg/kg/injection, schedule: Q01DX009 (ip), vehicle: saline 100 % of control and 91 % of control | dose: 20.0 mg/kg/injection, schedule: Q01DX009 (ip), vehicle: saline 93 % of control

CC(=O)N(O)C1CCCCC1
inactive: [6] 101 % of control | [1] 112 % of control | [7] 101 % of control | [2] 97 % of control | [8] 103 % of control | [3] 100 % of control

CCOP(=O)(Cc1cc(=O)oc2cc(OC)ccc12)OCC
inactive: dose: 100.0 mg/kg/injection, schedule: Q01DX001 (ip), vehicle: saline 101 % of control | dose: 200.0 mg/kg/injection, schedule: Q01DX001 (ip), vehicle: saline 100 % of control

Cc1ccc(S)c(C(O)(C(F)(F)F)C(F)(F)F)c1
inactive: dose: 50.0 mg/kg/injection, schedule: Q01DX009 (ip), vehicle: other 100 % of control | dose: 100.0 mg/kg/injection, schedule: Q01DX009 (ip), vehicle: other 100 % of control | dose: 200.0 mg/kg/injection, schedule: Q01DX009 (ip), vehicle: other 100 % of control

CN(C)CCC(=O)c1ccc(O)cc1
inactive: [1] 98 % of control | [2] 105 % of control | [3] 106 % of control

CN(C)c1ccc(C2c3cc4c(cc3OC3(N5CCCC5)CCCCC23)OCO4)cc1 (stereo unspecified)
inactive: dose: 60.0 mg/kg/injection, schedule: Q01DX005 (ip), vehicle: Klucel (hydroxypropylcellulose) (HPC) 95 % of control | [12] 97 % of control | [13] 89 % of control

O=C(O)CCC(=O)C1=CSC(=C2SC=CS2)S1
inactive: dose: 60.0 mg/kg/injection, schedule: Q01DX005 (ip), vehicle: Klucel + Tween-80 106 % of control

O=C1C2=C(Nc3cc([N+](=O)[O-])ccc3N2)OC1c1ccc2c(c1)OCO2 (stereo unspecified)
inactive: dose: 1.87 mg/kg/injection, schedule: Q01DX005 (ip), vehicle: Klucel (hydroxypropylcellulose) (HPC) 89 % of control | dose: 3.75 mg/kg/injection, schedule: Q01DX005 (ip), vehicle: Klucel (hydroxypropylcellulose) (HPC) 90 % of control | dose: 7.5 mg/kg/injection, schedule: Q01DX005 (ip), vehicle: Klucel (hydroxypropylcellulose) (HPC) 90 % of control | dose: 15.0 mg/kg/injection, schedule: Q01DX005 (ip), vehicle: Klucel (hydroxypropylcellulose) (HPC) 88 % of control | dose: 30.0 mg/kg/injection, schedule: Q01DX005 (ip), vehicle: Klucel (hydroxypropylcellulose) (HPC) 87 % of control | [12] 89 % of control and 90 % of control | [13] 93 % of control

CC(C)C(NC=O)C(=O)O (stereo unspecified)
inactive: [14] 101 % of control | [15] 91 % of control | [16] 101 % of control | [17] 98 % of control | dose: 200.0 mg/kg/injection, schedule: Q01DX005 (ip), vehicle: Klucel (hydroxypropylcellulose) (HPC) 95 % of control | [18] 94 % of control

CC(C)C(NC(=O)C1CSC(C)(C)N1C=O)C(=O)O (stereo unspecified)
inactive: [15] 102 % of control | [17] 100 % of control | [18] 102 % of control

CN1CCC(c2ccccc2)(c2ccccc2)C(=O)C1
inactive: [6] 100 % of control and 104 % of control | [7] 109 % of control and 111 % of control and 114 % of control | [8] 118 % of control and 123 % of control

O=c1oc2nc3ccc(Cl)cc3c(=O)n2c2ccc(Cl)cc12
inactive: [9] 108 % of control | [10] 118 % of control | [11] 104 % of control

CC(C)(C)C(=O)CC(Cc1nccc2ccccc12)c1ccco1 (stereo unspecified)
inactive: [6] 113 % of control | [7] 106 % of control | [8] 97 % of control

CC(/C=C/c1ccc(Cl)c(Cl)c1)=N\NC(N)=S
inactive: [4] 121 % of control

Nc1nc(-c2ccccn2)cc2c(Cl)cccc12
inactive: [4] 86 % of control | [5] 115 % of control | dose: 240.0 mg/kg/injection, schedule: Q01DX005 (ip), vehicle: saline with Tween-80 97 % of control

Cc1cc(C)n(-c2ccc(N(CCO)CCO)nn2)n1
inactive: dose: 75.0 mg/kg/injection, schedule: Q01DX005 (ip), vehicle: other 93 % of control | dose: 150.0 mg/kg/injection, schedule: Q01DX005 (ip), vehicle: other 88 % of control | dose: 250.0 mg/kg/injection, schedule: Q01DX005 (oral), vehicle: water 103 % of control | dose: 300.0 mg/kg/injection, schedule: Q01DX005 (ip), vehicle: other 93 % of control | dose: 500.0 mg/kg/injection, schedule: Q01DX005 (oral), vehicle: water 116 % of control | dose: 1000.0 mg/kg/injection, schedule: Q01DX005 (oral), vehicle: water 99 % of control

Cc1nc2c(cc1[N+](=O)[O-])C(=O)NCCN2
inactive: dose: 25.0 mg/kg/injection, schedule: Q04DX003 (ip), vehicle: Klucel (hydroxypropylcellulose) (HPC) 91 % of control | dose: 50.0 mg/kg/injection, schedule: Q04DX003 (ip), vehicle: Klucel (hydroxypropylcellulose) (HPC) 100 % of control | dose: 100.0 mg/kg/injection, schedule: Q04DX003 (ip), vehicle: Klucel (hydroxypropylcellulose) (HPC) 96 % of control

COc1cccc2c1C(=O)C=C(c1ccccc1)S2(=O)=O
inactive: [14] 111 % of control | [16] 111 % of control
